This is an account of results in patent publication US20160257651A1, “NOVEL COMPOUND WITH ANTIBACTERIAL ACTIVITY” (priority 2013, published 2016).

In brackets after ≈: the same amount, converted by molar mass.

One experiment relates to S. aureus FDA209P (ATCC 6538P). The experiment in a line: microbe, parasite or virus in culture. It counts as cell-based, Staphylococcus aureus. As to conditions: Staphylococcus aureus, ATCC 6538P / FDA209P / MSSA, quinolone-susceptible MSSA, ParC 80S, GyrA 84S, read-out: MIC. As for the experimental part:
(§1) Then, the cell suspension was diluted 500 times with CAMHB mentioned above.
As to `CC1COc2c(N3CCN(C)CC3)c(F)cc3c(=O)c(C(=O)O)cn1c23` (centres unmarked) [OFX, ofloxacin], the MIC came out at 0.125 µg/mL (≈ 0.346 µM).

In the case of `NC1CCN(c2nc3c(cc2F)c(=O)c(C(=O)O)cn3-c2ccc(F)cc2F)C1` (centres unmarked) [TSX, tosufloxacin], the MIC was at most 0.06 µg/mL.

For another experiment, the system named is S. aureus Mu50. Briefly: microbe, parasite or virus in culture. Conditions: MIC for S. aureus Mu50 / MIC for S. aureus FDA209P. The format is cell-based, Staphylococcus aureus. As for the experimental part: as §1
On to `CC1COc2c(N3CCN(C)CC3)c(F)cc3c(=O)c(C(=O)O)cn1c23` (centres unmarked) [OFX, ofloxacin], for which the “MIC ratio (Mu50 MIC/FDA209P MIC)” value came out at 128.

`NC1CCN(c2nc3c(cc2F)c(=O)c(C(=O)O)cn3-c2ccc(F)cc2F)C1` (centres unmarked) [TSX, tosufloxacin]: the “MIC ratio (Mu50 MIC/FDA209P MIC)” value is on record as “≧2048”.

Still in this experiment, the particulars now being: S. aureus Mu50, quinolone-resistant MRSA; ParC S80F, GyrA S84L.
As for `CC1COc2c(N3CCN(C)CC3)c(F)cc3c(=O)c(C(=O)O)cn1c23` (centres unmarked) [OFX, ofloxacin], the MIC was found to be 16 µg/mL (≈ 44.3 µM).

The experiment is the same for the next values; noted with them: Staphylococcus aureus, MRSA, S. aureus Mu50, quinolone-resistant MRSA; ParC S80F, GyrA S84L.
`CC1COc2c(N3CCN(C)CC3)c(F)cc3c(=O)c(C(=O)O)cn1c23` (centres unmarked) [OFX, ofloxacin]: the MIC lay in the range of 8 to 128 µg/mL (≈ 22.1 to 354 µM).

A further experiment has as its system S. aureus Mu50 NR1-1. Briefly: microbe, parasite or virus in culture. It counts as cell-based. As to conditions: Staphylococcus aureus, MU50NR11. The protocol:
as §1
In turn, `CC1COc2c(N3CCN(C)CC3)c(F)cc3c(=O)c(C(=O)O)cn1c23` (centres unmarked) [OFX, ofloxacin] registered an MIC of 2 µg/mL (≈ 5.53 µM).

In turn, `NC1CCN(c2nc3c(cc2F)c(=O)c(C(=O)O)cn3-c2ccc(F)cc2F)C1` (centres unmarked) [TSX, tosufloxacin] displayed an MIC of 0.5 µg/mL (≈ 1.24 µM).

Another experiment concerns S. aureus MR5867 one-step mutant. Briefly: MIC against stepwise QRDR mutants. It counts as cell-based. Conditions: Staphylococcus aureus. The protocol:
(§2) The strains used for this test example are available from the inventors of the present invention.
as §1
Turning to `CC1COc2c(N3CCN(C)CC3)c(F)cc3c(=O)c(C(=O)O)cn1c23` (centres unmarked) [OFX, ofloxacin], the MIC was found to be 1 µg/mL (≈ 2.77 µM).

`NC1CCN(c2nc3c(cc2F)c(=O)c(C(=O)O)cn3-c2ccc(F)cc2F)C1` (centres unmarked) [TSX, tosufloxacin] had an MIC of 0.25 µg/mL (≈ 0.618 µM).

The test system of the next experiment is S. aureus MS5952 one-step mutant. The experiment in a line: MIC against stepwise QRDR mutants. The format is cell-based. As to conditions: Staphylococcus aureus. The protocol: as §2, §1
Take `CC1COc2c(N3CCN(C)CC3)c(F)cc3c(=O)c(C(=O)O)cn1c23` (centres unmarked) [OFX, ofloxacin]: the MIC was found to be 1 µg/mL (≈ 2.77 µM).

Consider `NC1CCN(c2nc3c(cc2F)c(=O)c(C(=O)O)cn3-c2ccc(F)cc2F)C1` (centres unmarked) [TSX, tosufloxacin], for which the MIC stood at 2 µg/mL (≈ 4.95 µM).

The next experiment has as its system Staphylococcus aureus VRS5 (VRSA). Briefly: MIC, S. aureus categories (Test Example 3). It counts as cell-based.
Settings: not given
The protocol: The antibacterial activities of the compound J-131CP against Staphylococcus aureus strains belonging to the five categories of Staphylococcus aureus, i.e., MSSA, MRSA, community-acquired-infection type MRSA (CA-MRSA), VISA, and VRSA, were investigated.
(§3) The compound J-131CP and quinolones were prepared in the same manner as that of Test Example 1-1.
Cell suspensions were prepared in the same manner as that of Test Example 1-1 described in the section of measurement of MIC in Test Example 1-1, except that the strains mentioned in Table 6 were used as Staphylococcus aureus, and MICs of the compound J-131CP and quinolones as the control were determined for the strains in the same manner as that of Test Example 1-1. In Table 6, the amino acid substitution mutations in QRDR of the strains are underlined.
Compound `CC1COc2c(N3CCN(C)CC3)c(F)cc3c(=O)c(C(=O)O)cn1c23` (centres unmarked) [OFX, ofloxacin] showed an MIC of over 128 µg/mL.

Take `NC1CCN(c2nc3c(cc2F)c(=O)c(C(=O)O)cn3-c2ccc(F)cc2F)C1` (centres unmarked) [TSX, tosufloxacin]: the MIC was over 128 µg/mL.

The subject of a further experiment is E. faecalis 36-15747. Briefly: MIC against Enterococcus bacteria. It counts as cell-based. Conditions: 3615747, ParC 80Ile. As for the experimental part:
(§4) Antibacterial activities of the compound J-131CP against Enterococcus bacteria (Enterococcus faecium and Enterococcus faecalis) were examined by the following methods.
as §3
(§5) Cell suspensions were prepared in the same manner as that of Test Example 1-1 described in the section of measurement of MIC in Test Example 1-1, except that the Enterococcus bacterium strains mentioned in Table 8 were used instead of Staphylococcus aureus, and MICs of the compound J-131CP and quinolones as control were determined for the strains in the same manner as that of Test Example 1-1 described in the section of measurement of MIC in Test Example 1-1. In Table 8, the amino acid substitution mutations in QRDR of the strains are underlined.
The compound `CC1COc2c(N3CCN(C)CC3)c(F)cc3c(=O)c(C(=O)O)cn1c23` (centres unmarked) [OFX, ofloxacin] returned an MIC of 4 µg/mL (≈ 11.1 µM).

Regarding `NC1CCN(c2nc3c(cc2F)c(=O)c(C(=O)O)cn3-c2ccc(F)cc2F)C1` (centres unmarked) [TSX, tosufloxacin], the MIC was 2 µg/mL (≈ 4.95 µM).

The test system of a further experiment is E. faecalis NCTC12201. Briefly: MIC against Enterococcus bacteria. As to conditions: Enterococcus faecalis, NCTC 12201 / VRE, quinolone-susceptible, read-out: MIC. It counts as cell-based. As for the experimental part:
as §4, §3, §5
Turning to `CC1COc2c(N3CCN(C)CC3)c(F)cc3c(=O)c(C(=O)O)cn1c23` (centres unmarked) [OFX, ofloxacin], the MIC was found to be 2 µg/mL (≈ 5.53 µM).

For the compound `NC1CCN(c2nc3c(cc2F)c(=O)c(C(=O)O)cn3-c2ccc(F)cc2F)C1` (centres unmarked) [TSX, tosufloxacin], the MIC turned out to be 0.25 µg/mL (≈ 0.618 µM).

The next experiment concerns E. faecalis NCTC12203. Briefly: MIC against Enterococcus bacteria. The format is cell-based. As to conditions: NCTC 12203 / VRE, E. faecalis NCTC12203, VRE, read-out: MIC. The protocol: as §4, §3, §5
Turning to `CC1COc2c(N3CCN(C)CC3)c(F)cc3c(=O)c(C(=O)O)cn1c23` (centres unmarked) [OFX, ofloxacin], the MIC was 4 µg/mL (≈ 11.1 µM).

Turning to `NC1CCN(c2nc3c(cc2F)c(=O)c(C(=O)O)cn3-c2ccc(F)cc2F)C1` (centres unmarked) [TSX, tosufloxacin], the MIC was found to be 4 µg/mL (≈ 9.89 µM).

Another experiment relates to E. faecium NCTC12204. The experiment in a line: MIC against Enterococcus bacteria. As to conditions: NCTC 12204 / VRE, E. faecium NCTC12204, VRE, read-out: MIC. It counts as cell-based. As for the experimental part:
as §4, §3, §5
On to `CC1COc2c(N3CCN(C)CC3)c(F)cc3c(=O)c(C(=O)O)cn1c23` (centres unmarked) [OFX, ofloxacin], for which the MIC is 4 µg/mL (≈ 11.1 µM).

Regarding `NC1CCN(c2nc3c(cc2F)c(=O)c(C(=O)O)cn3-c2ccc(F)cc2F)C1` (centres unmarked) [TSX, tosufloxacin], the MIC was 4 µg/mL (≈ 9.89 µM).

A further experiment deals with E. faecium RPR10. Briefly: MIC against Enterococcus bacteria. The format is cell-based. Conditions: E. faecium RPR10, read-out: MIC. As for the experimental part:
as §4, §3, §5
In the case of `CC1COc2c(N3CCN(C)CC3)c(F)cc3c(=O)c(C(=O)O)cn1c23` (centres unmarked) [OFX, ofloxacin], the MIC was 2 µg/mL (≈ 5.53 µM).

Regarding `NC1CCN(c2nc3c(cc2F)c(=O)c(C(=O)O)cn3-c2ccc(F)cc2F)C1` (centres unmarked) [TSX, tosufloxacin], the MIC came to 4 µg/mL (≈ 9.89 µM).

The next experiment deals with E. faecalis 36-15722. The experiment in a line: MIC against Enterococcus bacteria. Conditions: Enterococcus faecalis, 3615722; E. faecalis 36-15722, quinolone-resistant; ParC 80Ile, GyrA 84Ile; read-out: MIC. The format is cell-based, Enterococcus faecalis. The protocol: as §4, §3, §5
Take `CC1COc2c(N3CCN(C)CC3)c(F)cc3c(=O)c(C(=O)O)cn1c23` (centres unmarked) [OFX, ofloxacin]: the MIC was 64 µg/mL (≈ 177 µM).

Consider `NC1CCN(c2nc3c(cc2F)c(=O)c(C(=O)O)cn3-c2ccc(F)cc2F)C1` (centres unmarked) [TSX, tosufloxacin], for which the MIC was over 128 µg/mL.

For a further experiment, the system named is S. pneumoniae BCLSP16. Briefly: MIC against pneumococcus, CAMHB with 5 mass % LHB. It counts as cell-based. As to conditions: Streptococcus pneumoniae, BCLSP16. From the text:
(§6) Antibacterial activity of the compound J-131CP against pneumococcus (Streptococcus pneumoniae) was examined by the following method. The S. pneumoniae strains used for this test belong to any one of the categories of penicillin-susceptible pneumococcus (penicillin-susceptible Streptococcus pneumoniae, PSSP), penicillin-intermediate pneumococcus (penicillin-intermediate Streptococcus pneumoniae, PISP), and penicillin-resistant pneumococcus (penicillin-resistant Streptococcus pneumoniae, PRSP).
(§7) The compound J-131CP and quinolones were prepared in the same manner as that of Test Example 1-1, except that CAMHB containing 5 mass % of lysed horse blood (LHB) was used for the dilution instead of CAMHB. The lysed horse blood was prepared by adding sterilized water to horse sterile defibered blood (produced by Nippon Bio-Supp. Center) at a ratio of 1:1, subjecting the mixture to freezing and thawing 5 times, then centrifuging the mixture twice at 10,000 rpm for 20 minutes, and filtering the supernatant through a filter.
(§8) The S. pneumoniae strains mentioned in Table 11 were each cultured overnight at 37° C. on a blood agar medium as stationary culture. The blood agar medium was prepared by adding 5 mass % ovine sterile defibered blood (produced by Nippon Bio-Supp. Center) to a heart infusion agar medium (produced by EIKEN CHEMICAL). Each S. pneumoniae strain cultured overnight at 37° C. as stationary culture was further subcultured overnight at 37° C. on fresh blood agar medium as stationary culture. After completion of the culture, cells of each pneumococcus strain were collected with a swab, and suspended in physiological saline, and the suspension was adjusted with physiological saline to show absorbance of 0.08 to 0.13 at 625 nm as measured with an absorbance meter (produced by Amersham), and further diluted 200 times with CAMHB containing 5 mass % LHB.
(§9) CAMHB containing the compound J-131CP at each concentration or each quinolone at each concentration, and 5 mass % LHB was added to each well of a 96-well plate in a volume of 50 μL/well, each cell suspension diluted 200 times was added to the well in a volume of 50 μL/well, and stationary culture was carried out overnight at 37° C.
(§10) After completion of the culture, whether the bacterium proliferated or not was determined on the basis of visually observed turbidity of the culture in the well, and MIC values (mg/L) of the compound J-131CP and the quinolones for the strains were determined. In Table 11, the amino acid substitution mutations in QRDR of the strains are underlined.
With `CC1COc2c(N3CCN(C)CC3)c(F)cc3c(=O)c(C(=O)O)cn1c23` (centres unmarked) [OFX, ofloxacin], the MIC was 16 µg/mL (≈ 44.3 µM).

For the compound `NC1CCN(c2nc3c(cc2F)c(=O)c(C(=O)O)cn3-c2ccc(F)cc2F)C1` (centres unmarked) [TSX, tosufloxacin], the MIC worked out at 8 µg/mL (≈ 19.8 µM).

The next experiment concerns S. pneumoniae JHSP11. Briefly: MIC against pneumococcus, CAMHB with 5 mass % LHB. Conditions: Streptococcus pneumoniae. It counts as cell-based.
From the text: as §6, §7, §8, §9, §10
Consider `CC1COc2c(N3CCN(C)CC3)c(F)cc3c(=O)c(C(=O)O)cn1c23` (centres unmarked) [OFX, ofloxacin], for which the MIC stood at 8 µg/mL (≈ 22.1 µM).

For `NC1CCN(c2nc3c(cc2F)c(=O)c(C(=O)O)cn3-c2ccc(F)cc2F)C1` (centres unmarked) [TSX, tosufloxacin], the MIC was 8 µg/mL (≈ 19.8 µM).

In another experiment the test system is S. pneumoniae KBSP04. Briefly: MIC against pneumococcus, CAMHB with 5 mass % LHB. It counts as cell-based. Conditions: Streptococcus pneumoniae, KBSP04.
From the text: as §6, §7, §8, §9, §10
Turning to `NC1CCN(c2nc3c(cc2F)c(=O)c(C(=O)O)cn3-c2ccc(F)cc2F)C1` (centres unmarked) [TSX, tosufloxacin], the MIC is 0.125 µg/mL (≈ 0.309 µM).

The experiment is the same for the next values; noted with them: Streptococcus pneumoniae; S. pneumoniae KBSP04, PISP; read-out: MIC.
For `CC1COc2c(N3CCN(C)CC3)c(F)cc3c(=O)c(C(=O)O)cn1c23` (centres unmarked) [OFX, ofloxacin], the MIC was determined as 0.5 µg/mL (≈ 1.38 µM).
